From patent US8187878B2, “Methods for increasing definitive endoderm differentiation of pluripotent human embryonic stem cells with PI-3 kinase inhibitors” (University of Georgia Research Foundation, Inc., priority 2004, dated 2012)

Key:
[1] = system: hESCs; assay: Kidney capsule assay of LY 294002 treated hESCs; assay type: in vivo, SCID-beige mice; conditions: relative to LY 294002 treated cells that were not implanted
Protocol: Untreated hESCs or hESCs treated for 4 days with 60 μM LY 294002 were collagenase treated to generate cell aggregates (˜50 cells/aggregate), washed in warm media, then gently resuspended in 2 ml DMEM/F12, 10% FCS and left overnight at 37° C., 10% CO2 to facilitate further aggregation. Approximately 2.5×10^6 cells were injected into the kidney capsule of 5 week old male SCID-beige mice. 6 weeks after transplantation, mice were sacrificed, and the kidneys were removed and fixed in 4% paraformaldehyde. Following fixation, kidneys were embedded in paraffin wax, sectioned and mounted onto glass slides in preparation for H&E and immunostaining. After mounting, slides underwent deparaffinization, rehydration and heat induced epitope retrieval with Trilogy (Cell Marque, CMX-833). Slides were stained using the alkaline phosphatase Vectastain ABC System (Vector Labs, AK-5002) and Vector Red substrate (Vector Labs, SK-5100). […] For fluorescence immunocytochemistry the following secondary antibodies were used; Alexa Fluor 488 goat anti-mouse IgG (Molecular Probes, A11001), Alexa Fluor 594 goat anti-rabbit IgG (Molecular Probes, A11012).

[2] = system: BG01 cell line; assay: SOX17 and AFP immunofluorescence staining; assay type: cell-based, human
Protocol: Cells to be immunostained were grown on chamber slides, and were rinsed once with 1×PBS and fixed for 10 minutes in 4% PFA/4% sucrose in PBS pH 7.4 at room temperature. They were then rinsed 3× in 1×PBS and blocked in 3% goat serum with 0.1% Triton-X100 in PBS for 1 hour at room temperature. Primary antibodies were diluted in 3% goat serum in PBS and this solution was applied overnight at 4° C. The primary antibodies used were rabbit anti-human AFP (Zymed), used at a 1:50 dilution, and rat anti-human SOX17 (obtained from Cythera, Inc.), used at 1:1000 dilution. Cells were washed for 1 hour with 3 changes of 1×PBS. Secondary antibodies were applied for 2 hours at room temperature. Secondary antibodies used were goat anti-rabbit Alexa Fluor 488 and goat anti-rat Alexa Fluor 594 (Molecular Probes), both at a 1:1000 dilution in 3% goat serum in 1×PBS. Cells were washed for 1 hour with 3 changes of 1×PBS. The chambers were removed and slides were mounted in VectaShield mounting medium with DAPI (Vector).

[3] = system: hESC; assay: Sox17 Q-PCR, MEF-CM and LY 294002 with signaling inhibitors; assay type: cell-based, human; conditions: proteins approximately 500 ng/ml, SB-43152 approximately 10 μM, SU-5402 approximately 5 μM
Protocol: Sox 17 expression was evaluated by Q-PCR under culture conditions competent to support hESC-DE formation (MEF-CM and LY 294002) in the presence or absence of Chordin (approximately 500 ng/ml), Follistatin (approximately 500 ng/ml), Lefty-A (approximately 500 ng/ml), Noggin (approximately 500 ng/ml), SB-43152 (approximately 10 μM), and SU-5402 (approximately 5 μM). Assays were performed in triplicate and are shown as +/−SEM.

[4] = system: BG01 cells; assay: Sox17 Q-PCR, GSK3 inhibitor on LY 294002 induced DE formation; assay type: cell-based, human; conditions: 60 μM LY 294002; BIO 0.1-5 μM, MeBIO 1-5 μM; 3-4 days
Protocol: BG01 cells were passaged on matrigel using the collagenase/trypsin method as described above and were plated on matrigel-coated chamber slides in CM. After approximately 24 hours, the medium was changed, and the cells were treated with 60 μM LY 294002, BIO, meBIO, or DMSO for approximately 3-4 days. The inhibitor BIO (Dr. Ali Brivanlou) was diluted in DMSO and was used at a concentration of approximately 0.1-5 μM. MeBIO (Dr. Ali Brivanlou) was also diluted in DMSO and used at a concentration of approximately 1-5 μM. Assays were performed in triplicate and are shown as +/−SEM.
Cells were grown in these conditions for approximately 3-4 days with a medium change every 24 hours. Cells were harvested using the collagenase/trypsin method for Q-PCR as described above

[5] = system: BG01 cells; assay: Sox17 Q-PCR, LY 294002 with conditioned medium or TGFβ members; assay type: cell-based, human; conditions: UCM, approximately 4 days
Protocol: BG01 cells were passaged from feeders using the collagenase/trypsin method and were plated on matrigel coated dishes at 1×10^5 cells/35 mm dish in unconditioned hES medium (UCM). After approximately 24 hours, the media was replaced with fresh hES medium or MEF-CM, along with LY 294002, Activin A, or Nodal as shown in FIG. 8A. LY 294002 was used at a concentration of approximately 60 μM; Activin A was used at a concentration of approximately 100 ng/ml; and Nodal was used at a concentration of approximately 1 μg/ml. Cells were treated for approximately 4 days, with a change in medium every 24 hours. Cells were harvested using the collagenase/trypsin method for Q-PCR analysis. Sox-17 Q-PCR was performed as described in Example 3.

With O=c1cc(N2CCOCC2)oc2c(-c3ccccc3)cccc12 [LY 294002] the “increase in FABP1 mRNA” value [1] was 1000 fold, the “increase in albumin mRNA” value [1] was 4500 fold and the “cell population expressing SOX17” value ([2]; counting 500 cells) was 60%. The “cells expressing SOX17” value ([2]; of 500 cells counted) was 296 cells.

For NC(=O)c1ccc(-c2nc(-c3ccccn3)c(-c3ccc4c(c3)OCO4)[nH]2)cc1 [SB-43152], the “LY 294002, MEF-CM dependent Sox17 expression” value [3] was “suppressed”.

With MeBIO the “LY 294002 induced DE formation as determined by Sox17 expression” value [4] was “not”.

In the case of O=C1Nc2cc(Br)ccc2/C1=C1/Nc2ccccc2/C1=N\O [BIO], the “LY 294002 induced DE formation as determined by Sox17 expression” value [4] is reported as “blocked”.

B1: Activin A: member of the TGFβ family (protein, UniProt P08476 311-426, looked up)
Inhibin beta A chain: GLECDGKVNICCKKQFFVSFKDIGWNDWIIAPSGYHANYCEGECPSHIAGTSGSSLSFHSTVINHYRMRGHSPFANLKSCCVPTKLRPMSMLYYDDGQNIIKKDIQNMIVEECGCS
For B1, the “Sox17 expression (fold-increase over untreated)” value ([5]; LY 294002 approximately 60 μM plus Activin A approximately 100 ng/ml) was “Significant Sox17 expression”.

B2: Nodal: member of the TGFβ family (protein, UniProt Q96S42 238-347, looked up)
Nodal homolog: HHLPDRSQLCRKVKFQVDFNLIGWGSWIIYPKQYNAYRCEGECPNPVGEEFHPTNHAYIQSLLKRYQPHRVPSTCCAPVKTKPLSMLYVDNGRVLLDHHKDMIVEECGCL
With B2 the “Sox17 expression (fold-increase over untreated)” value ([5]; LY 294002 approximately 60 μM plus Nodal approximately 1 μg/ml) was “Significant Sox17 expression”.

B3: Follistatin: inhibitor of Activin signaling (protein, UniProt P19883 30-344, looked up)
Follistatin: GNCWLRQAKNGRCQVLYKTELSKEECCSTGRLSTSWTEEDVNDNTLFKWMIFNGGAPNCIPCKETCENVDCGPGKKCRMNKKNKPRCVCAPDCSNITWKGPVCGLDGKTYRNECALLKARCKEQPELEVQYQGRCKKTCRDVFCPGSSTCVVDQTNNAYCVTCNRICPEPASSEQYLCGNDGVTYSSACHLRKATCLLGRSIGLAYEGKCIKAKSCEDIQCTGGKKCLWDFKVGRGRCSLCDELCPDSKSDEPVCASDNATYASECAMKEAACSSGVLLEVKHSGSCNSISEDTEEEEEDEDQDYSFPISSILEW
With B3 the “LY 294002, MEF-CM dependent Sox17 expression” value [3] was “suppressed”.
